Source: patent publication US11759438B2, “Compositions and methods for treating ocular pathologies” (priority 2017, dated 2023)
Where two headings read alike, the source gives them in different places.

Legend:
[1] = tested on: Herpes Simplex Virus type 1 (HSV-1) RE strain; assay: Herpes stromal keratitis model, C57bl/6 mice, topical eye drops; type: in vivo
[2] = tested on: Herpes Simplex Virus type 1 (HSV-1) RE strain; assay: Herpes stromal keratitis model, BALB/c mice, topical eye drops, clinical scoring and histology; type: in vivo; conditions: for animal body weight: HSV-1 infected mice, relative to BSS controls; for HSV-induced pathological vascularization of the eye: mouse models of herpetic keratitis, ophthalmic formulation
Description: DOI drops were topically applied for 7 days post infection and chronic disease was assessed up to day 15.
There is a complete absence of inflammatory or red blood cells and no vascularization of corneal tissue. 2nd row panels: HSV infection and long-term inflammatory responses induces disruption of the epithelial layer, thickening of the stroma, and identifiable vascularization of corneal tissue (yellow arrows) with extensive presence of immune infiltrates.
16 BALB/c mice were randomly sorted into 3 treatment arms: 1) Ophthalmic Balanced Saline Solution diluted 1:1 in PBS (BSS+PBS) treated (6 mice); 2) DOI treated (XTPFDOI) (5 mice); 3) 1.0% TFT (TFT+PBS) (5 mice). Animals were anesthetized with […]:ketamine and both eyes were scarified in a cross hatch pattern using a curved needle. Immediately following ocular scarification, eyes were inoculated with a 3 microliter drop containing 10,000 plaque forming units (PFU) of Herpes Simplex Virus type 1 (HSV-1) RE strain. The next morning following infection, animals were treated with the respective treatment as assigned within their treatment arm. Treatments were applied topically to the eye in a 4 microliter drop. Drops were applied 4 time per day from 9:00 am to 5:30 pm, starting immediately following clinical scoring. Treatments were applied for the first 8 days post infection and then stopped. Clinical scoring was done using a slit lamp biomicroscope magnified at 16× on the days indicated by a single individual masked to the drug treatment parameters. Slit lamp biomicroscopy also included fluorescein exclusion labeling of the corneal surface following scoring of all clinical parameters. Each eye was scored independently. Animal deaths were recorded if euthanasia was required due to severe encephalitis or if animals died from HSV-associated disease. Clinically clear eyes were scored as such if no apparent signs of disease were present in any clinical parameter during the chronic phase.
At day 15 post infection, a stage that would be during chronic immune-associated disease with no virus present, animals were euthanized and the eyes were removed for histology. Random representative eyes were prepared by taking sections through the central cornea and processed by H&E histology for visualization. Sections were examined microscopically and photographed across the central cornea.

HSV-1 = tested on: HSV-1; set-up: species or system mice; conditions: 500 nM; for HSV-1 reactivation from latency (in words): ex vivo TG explants
[3] = tested on: human microvascular endothelial cells (HMEC) spheroids; assay: Spheroid tubule growth assay; type: cell-based; conditions: matrigel with VEGF; serotonin 50 nM, R-DOI 100 nM, TCB2 500 nM
Description: FIG. 16 is a series of fluorescent micrographs showing the effect of 5HT2A receptor agonists on vascular tubule growth from tissue-like spheroids.
HMEC cells were cultured in specially coated U-shaped bottom 96 well plates in order to form tissue-like three-dimension spheroids. Spheroids were subsequently implanted into wells that contained matrigel basement membranes supplemented with vascular endothelial growth factor (VEGF) or starved (Starvation control-no VEGF). Culture media was treated with either serotonin (50 nM), (R-DOI (100 nM), or TCB2 (500 nM) outgrowth from the spheroids of vascular-like structures was monitored microscopically.

[4] = tested on: VEGF-mediated corneal vascularization; assay: VEGF-mediated ocular vascularization model, topical DOI; type: in vivo, rabbit; conditions: eyes treated with DOI
Description: A rabbit corneal micropocket assay is used to assess the ability of topically administered DOI to prevent VEGF-mediated corneal vascularization. VEGF or saline control slow release micropellets are generated as described previously. A corneal micropocket is created in each rabbit eye 3.0 mm from the corneal limbus, and micropellets are implanted. Starting the day after implant, paired OD and OS eyes are treated four times daily with either control (OD eyes) or DOI (OS eyes) drops, respectively. The utilization of sister eyes for topical drug evaluation controls for animal-to-animal variability. Eyes are clinically assessed daily and imaged by slit lamp biomicroscopy as described in all other ocular studies herein.
VEGF-induced vascularization and vessel permeability can lead to corneal edema, inflammation, and ocular clouding. Therefore, a panel of clinical parameters (described herein) is assessed daily by fluorescent slit-lamp biomicroscopy to ascertain the therapeutic effects of topical DOI treatment on vascularization-mediated eye disease.
VEGF is a known mediator of vascular permeability and we have observed in this model system that edema and chemosis is common, irrespective of the extent of vascularization induced. […]

aortic rings = assay: Aortic ring assay (VEGF-mediated neovascularization); set-up: species or system mice
Description: FIG. 13 is a series of photographs showing VEGF-mediated neovascularization from aortic rings in the presence of R-DOI, TCB2, and 4F4PP.
These aortic rings are implanted into matrigel basement membrane and incubated in endothelial cell growth medium containing vascular endothelial growth factor. Aortic rings are continuously incubated in the presence of 5-HT2A receptor agonists and antagonists at the indicated concentrations and examined by microscopy daily. Extensive sprouting, branching and networking of new blood vessels can be observed in control aortic rings, where multiple images needed to be stitched together in order to capture the extensive blood vessel network formed.

[5] = tested on: cancerous retinoblastoma cells (Y-79); assay: Cytotoxicity by lysis, retinoblastoma cells; type: cell-based; conditions: varying doses
Description: (§1) FIG. 17 is a series of graphs showing the effect of R-DOI dose on cytotoxicity of healthy retinal pigment epithelial cells (APRE) and cancerous retinoblastoma cells (Y-79) at 24 hours (top), 48 hours (middle), and 72 hours (bottom).
(§2) Healthy (APRE) and cancerous (Y-79) retinal cell lines were treated with varying doses of R-DOI and monitored for cytotoxicity by lysis at 24 hour intervals.

[6] = tested on: healthy retinal pigment epithelial cells (APRE); assay: Cytotoxicity by lysis, healthy retinal cells; type: cell-based; conditions: highest dose tested
Description: as §1, §2

[7] = relative to BSS controls and TFT controls, by day 12 post-infection

For `COc1cc(CC(C)N)c(OC)cc1I` (stereo not drawn) [DOI, 1-(4-Iodo-2,5-dimethoxyphenyl)propan-2-amine], the “clinical scores (three metrics)” value ([1]; compared to BSS control, by day 16 post-infection) was “even greater improvement in each metric”, the “clinical scores (slit-lamp biomicroscopy, stromal opacity/inflammation, corneal neovascularization)” value ([1]; relative to BSS controls, by day 12 post-infection, 4 μl/eye 4x daily for 8 days) was “decreased score in all three metrics” and the animal body weight [2] was “retained”. For the same compound, the “eyes exhibiting complete clinical resolution” value ([2]; by day 15) was 60%, the “histopathology of the eye (cornea)” value ([2]; day 15 post infection) was “normal ocular morphology with an absence of clinical signs of ocular disease” and the “development of all clinically scored parameters” value ([2]; drops for 7 days post infection, chronic disease assessed up to day 15) was “suppressed development of all clinically scored parameters”. For the same compound, the “control of acute and chronic vision-threatening disease compared to TFT” value ([2]; herpetic eye disease model) was “superior at controlling both acute and chronic vision-threatening disease”, the neovascularization score [2, 7] was “decreased” and the slit lamp score [2, 7] was “decreased”. For the same compound, the stroma capacity score [2, 7] was “decreased”, the “ganglia positive for infectious HSV-1 (number/total)” value (from here on “ganglia positive … (number/total)”) (HSV-1; day 1 post-explant) was 0/7 and the “percentage positive for infectious HSV-1” value (HSV-1; day 1 post-explant) was “(0%)”. The “ganglia positive … (number/total)” value (HSV-1; day 2 post-explant) was 0/7, the “percentage positive for infectious HSV-1” value (HSV-1; day 2 post-explant) was “(0%)” and the “ganglia positive … (number/total)” value (HSV-1; day 3 post-explant) was 0/7. For the same compound, the “percentage positive for infectious HSV-1” value (HSV-1; day 3 post-explant) was “(0%)”, the “ganglia positive … (number/total)” value (HSV-1; day 4 post-explant) was 0/7 and the “percentage positive for infectious HSV-1” value (HSV-1; day 4 post-explant) was “(0%)”. The “ganglia positive … (number/total)” value (HSV-1; day 5 post-explant) was 0/7, the “percentage positive for infectious HSV-1” value (HSV-1; day 5 post-explant) was “(0%)” and the “ganglia positive … (number/total)” value (HSV-1; day 6 post-explant) was 0/7. The “percentage positive for infectious HSV-1” value (HSV-1; day 6 post-explant) was “(0%)”, the “ganglia positive … (number/total)” value (HSV-1; day 7 post-explant) was 0/7 and the “percentage positive for infectious HSV-1” value (HSV-1; day 7 post-explant) was “(0%)”. For the same compound, the “ganglia positive … (number/total)” value (HSV-1; day 8 post-explant) was 1/7, the “percentage positive for infectious HSV-1” value (HSV-1; day 8 post-explant) was “(14.3%)” and the “ganglia positive … (number/total)” value (HSV-1; day 9 post-explant) was 1/7. For the same compound, the “percentage positive for infectious HSV-1” value (HSV-1; day 9 post-explant) was “(14.3%)”, the “ganglia positive … (number/total)” value (HSV-1; day 10 post-explant) was 2/7 and the “percentage positive for infectious HSV-1” value (HSV-1; day 10 post-explant) was “(28.6%)”. The “delay in reactivation of HSV-1 from TGs” value (HSV-1; relative to mock) was 2 fold, the “degree of reactivation and amount of infectious virus shed from latent neurons (PFU/ml/TG; PFU/ml/positive TG)” value (HSV-1; relative to mock treated neurons) was “significantly inhibited the degree of reactivation and amount of infectious virus shed from latent neurons” and the “HSV-1 reactivation from latency (in words)” value (“HSV-1 reactivation” below) (HSV-1) was “maintains latency of HSV-1 within reactivation induced neurons”. The “vascular-like tubular growth from HMEC spheroids” value [3] was “abrogated formation of vascular-like tubular growth”, the “clinical presentation of edema and chemosis” value [4] was “greatly reduced” and the “vascularization of the eye” value [4] was “resolution of vascularization”.
`COc1cc(C[C@@H](C)N)c(OC)cc1I` [R-DOI, R-2,5-Dimethoxy-4-iodoamphetamine] was tested, and the “HSV-induced pathological vascularization of the eye” value [2] was “suppressed HSV-induced pathological vascularization of the eye”, the “HSV-induced pathological vascularization of the eye” value ([2]; listed as (R)-DOI) was “demonstrated anti-vascularization properties” and the “inhibitory effects for neovascularization, sprouting, branching, and networking” value (aortic rings; 10 nM concentration) was “began to no longer be as effective”. The “blood vessel sprouting, branching and formation” value (aortic rings; VEGF-containing endothelial growth medium, matrigel) was “inhibited blood vessel sprouting, branching and formation”, the “HSV-1 reactivation” value (HSV-1) was “inhibits HSV-1 reactivation from latent neurons” and the “HSV-1 reactivation” value (HSV-1; listed as (R)-DOI) was “inhibited HSV-1 reactivation from latency”. For the same compound, the cytotoxicity by lysis ([5]; Y-79, 24 hours) was “strong, dose-dependent toxicity”, the cytotoxicity by lysis ([5]; Y-79, 48 hours) was “killing effect was saturated at all doses” and the cytotoxicity by lysis [6] was “modest cytotoxicity”.
With `NCCc1c[nH]c2ccc(O)cc12` [Serotonin, 5 hydroxytryptamine, reference compound] the “vascular-like tubular growth from HMEC spheroids” value [3] was “induced vascularization-like replication and tubule growth”.
`O=c1[nH]c(=O)n([C@H]2C[C@H](O)[C@@H](CO)O2)cc1C(F)(F)F` [TFT, trifluorothymidine, reference compound] was tested, and the HSV replication ([2]; 1% TFT) was “complete inhibition of HSV replication” and the animal body weight [2] was “did not change body weight relative to BSS controls”.
